Test results as given in PubChem BioAssay AID248 (DTP/NCI, 2004).
Several values for one entry are separate records, joined by “and”; a condition that tells them apart may be missing. Equal values may be shown once. Inconclusive results and toxic doses are left out.

Test system: L1210 leukemia ip in BDF1 mice, survival T/C
Assay: NCI In Vivo Anticancer Drug Screen. Data for tumor model L1210 Leukemia (intraperitoneal) in B6D2F1 (BDF1) mice
Conditions: higher = longer survival
Procedure, shortened: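 Transplantable tumor model; survival measured in treated vs vehicle control mice. Value = treated/control.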

[1] = endpoint: mean survival time, dose: 100.0 mg/kg/injection, schedule: Q01DX001 (ip), vehicle: other

## CCOC(=O)CN1C(=O)C(Cl)=C(Cl)C1=O
endpoint: mean survival time, dose: 3.12 mg/kg/injection, schedule: Q01DX009 (ip), vehicle: saline with Tween-80
  T/C: 98 % of control
endpoint: mean survival time, dose: 6.25 mg/kg/injection, schedule: Q01DX009 (ip), vehicle: saline with Tween-80
  T/C: 98 % of control
endpoint: mean survival time, dose: 12.5 mg/kg/injection, schedule: Q01DX009 (ip), vehicle: saline with Tween-80
  T/C: 96 % of control

## CNC(=S)N/N=C(\C=N\NC(=S)NC)c1ccccc1
endpoint: mean survival time, dose: 50.0 micrograms/kg/injection, schedule: Q01DX009 (ip), vehicle: carboxymethylcellulose (CMC)
  T/C: 88 % of control

## CN=C(NC)c1cccc(NC(=O)c2cccc(C(=O)Nc3cccc(C(=NC)NC)c3)c2)c1
endpoint: mean survival time, dose: 4.4 mg/kg/injection, schedule: Q01DX Z (ip), vehicle: carboxymethylcellulose (CMC)
  T/C: 96 % of control
endpoint: mean survival time, dose: 6.6 mg/kg/injection, schedule: Q01DX Z (ip), vehicle: carboxymethylcellulose (CMC)
  T/C: 98 % of control
endpoint: mean survival time, dose: 10.0 mg/kg/injection, schedule: Q01DX Z (ip), vehicle: carboxymethylcellulose (CMC)
  T/C: 96 % of control
endpoint: mean survival time, dose: 15.0 mg/kg/injection, schedule: Q01DX Z (ip), vehicle: carboxymethylcellulose (CMC)
  T/C: 93 % of control and 98 % of control
endpoint: mean survival time, dose: 22.0 mg/kg/injection, schedule: Q01DX Z (ip), vehicle: carboxymethylcellulose (CMC)
  T/C: 94 % of control

## O=C1NC(O)C(O)N1 (configuration not stated)
endpoint: mean survival time, dose: 100.0 mg/kg/injection, schedule: Q01DX009 (ip), vehicle: Klucel (hydroxypropylcellulose) (HPC)
  T/C: 104 % of control
endpoint: mean survival time, dose: 100.0 mg/kg/injection, schedule: Q04DX003 (ip), vehicle: Klucel (hydroxypropylcellulose) (HPC)
  T/C: 100 % of control
endpoint: mean survival time, dose: 200.0 mg/kg/injection, schedule: Q01DX009 (ip), vehicle: Klucel (hydroxypropylcellulose) (HPC)
  T/C: 96 % of control
endpoint: mean survival time, dose: 200.0 mg/kg/injection, schedule: Q04DX003 (ip), vehicle: Klucel (hydroxypropylcellulose) (HPC)
  T/C: 96 % of control
endpoint: mean survival time, dose: 400.0 mg/kg/injection, schedule: Q01DX009 (ip), vehicle: Klucel (hydroxypropylcellulose) (HPC)
  T/C: 105 % of control
endpoint: mean survival time, dose: 400.0 mg/kg/injection, schedule: Q04DX003 (ip), vehicle: Klucel (hydroxypropylcellulose) (HPC)
  T/C: 100 % of control

## CC(C)C(=O)Nc1cc(Cl)ccc1Cl
[1]
  T/C: 94 % of control
endpoint: mean survival time, dose: 200.0 mg/kg/injection, schedule: Q01DX001 (ip), vehicle: other
  T/C: 97 % of control
endpoint: mean survival time, dose: 400.0 mg/kg/injection, schedule: Q01DX001 (ip), vehicle: other
  T/C: 92 % of control

## COC1C(O)C(C)OC(OC2C(Oc3cccc4c(O)c5c(=O)oc6ccc(C)c7c(=O)oc(c34)c5c67)OC(C)C(O)C2O)C1O (configuration not stated)
endpoint: mean survival time, dose: 1.25 mg/kg/injection, schedule: Q01DX009 (ip), vehicle: saline with Tween-80
  T/C: 97 % of control
endpoint: mean survival time, dose: 2.5 mg/kg/injection, schedule: Q01DX009 (ip), vehicle: saline with Tween-80
  T/C: 123 % of control
endpoint: mean survival time, dose: 5.0 mg/kg/injection, schedule: Q01DX009 (ip), vehicle: saline with Tween-80
  T/C: 115 % of control
endpoint: mean survival time, dose: 12.5 mg/kg/injection, schedule: Q01DX009 (ip), vehicle: carboxymethylcellulose (CMC)
  T/C: 108 % of control
endpoint: mean survival time, dose: 20.0 mg/kg/injection, schedule: Q01DX009 (ip), vehicle: saline with Tween-80
  T/C: 166 % of control
endpoint: mean survival time, dose: 25.0 mg/kg/injection, schedule: Q01DX009 (ip), vehicle: carboxymethylcellulose (CMC)
  T/C: 108 % of control
endpoint: mean survival time, dose: 50.0 mg/kg/injection, schedule: Q01DX009 (ip), vehicle: carboxymethylcellulose (CMC)
  T/C: 117 % of control
endpoint: mean survival time, dose: 100.0 mg/kg/injection, schedule: Q01DX009 (ip), vehicle: saline with Tween-80
  T/C: 121 % of control
endpoint: median survival time, dose: 8.0 mg/kg/injection, schedule: Q04DX003 (ip), vehicle: saline with Tween-80
  T/C: 106 % of control
endpoint: median survival time, dose: 16.0 mg/kg/injection, schedule: Q04DX003 (ip), vehicle: saline with Tween-80
  T/C: 110 % of control
endpoint: median survival time, dose: 32.0 mg/kg/injection, schedule: Q04DX003 (ip), vehicle: saline with Tween-80
  T/C: 114 % of control
endpoint: median survival time, dose: 64.0 mg/kg/injection, schedule: Q04DX003 (ip), vehicle: saline with Tween-80
  T/C: 114 % of control
endpoint: median survival time, dose: 128.0 mg/kg/injection, schedule: Q04DX003 (ip), vehicle: saline with Tween-80
  T/C: 110 % of control

## CC1(C)CN1P(=S)(N1CC1(C)C)N1CC1(C)C (configuration not stated)
endpoint: mean survival time, dose: 12.5 mg/kg/injection, schedule: Q01DX009 (ip), vehicle: saline
  T/C: 98 % of control
endpoint: mean survival time, dose: 14.0 mg/kg/injection, schedule: Q01DX009 (ip), vehicle: saline
  T/C: 109 % of control
endpoint: mean survival time, dose: 22.0 mg/kg/injection, schedule: Q01DX009 (ip), vehicle: saline
  T/C: 112 % of control
endpoint: mean survival time, dose: 25.0 mg/kg/injection, schedule: Q01DX009 (ip), vehicle: saline
  T/C: 94 % of control
endpoint: mean survival time, dose: 33.0 mg/kg/injection, schedule: Q01DX009 (ip), vehicle: saline
  T/C: 152 % of control
endpoint: mean survival time, dose: 44.0 mg/kg/injection, schedule: Q01DX001 (ip), vehicle: other
  T/C: 121 % of control
endpoint: mean survival time, dose: 100.0 mg/kg/injection, schedule: Q01DX001 (ip), vehicle: carboxymethylcellulose (CMC)
  T/C: 166 % of control and 169 % of control
[1]
  T/C: 153 % of control
endpoint: mean survival time, dose: 150.0 mg/kg/injection, schedule: Q01DX001 (ip), vehicle: other
  T/C: 158 % of control
endpoint: mean survival time, dose: 200.0 mg/kg/injection, schedule: Q01DX001 (ip), vehicle: carboxymethylcellulose (CMC)
  T/C: 164 % of control
endpoint: mean survival time, dose: 200.0 mg/kg/injection, schedule: Q01DX009 (ip), vehicle: saline
  T/C: 120 % of control
